The experiment has as its system mHypoE-N41 hypothalamic cells. Nature of the experiment: Expression of appetite-promoting genes in hypothalamic cells. The format is cell-based. As to conditions: 100 nM, 24 hours; vs PBS control. How it is done: Furthermore, to confirm the appetite-regulating effect of the functional peptide in mHypoE-N41 hypothalamic cells, the hypothalamic cells were treated with PBS (control) and 100 nM mouse-derived functional peptide (experimental group) for 24 hours.

In the case of “human-derived functional peptide: Human IF1-derived peptide, SEQ ID NO: 2: GSDQSENVDRGAGSIREAGGAFGKREQAEEERYFRAQSREQLAALKK (listed as Homo sapiens)”, the “decrease of Agrp gene level compared to the control” value stood at 47.5% and the “decrease of NPY gene level compared to the control” value is given as 59.6%.
As to “mouse-derived functional peptide: Mouse IF1-derived peptide, SEQ ID NO: 1: VSDSSDSMDTGAGSIREAGGAFGKREKAEEDRYFREKTKEQLAALRK (listed as Mus musculus)”, the “decrease of Agrp gene level compared to the control” value was found to be 50.2% and the “decrease of NPY gene level compared to the control” value was determined as 48.8%.

Values taken from patent US20240034758A1, “NOVEL PEPTIDE AND USE THEREOF” (MEDI & GENE, priority 2020, published 2024).
